Results published in paper PMC11225352, “A multicenter, randomized, double-blind, placebo-controlled ascending dose study to evaluate the safety, tolerability, pharmacokinetics (PK) and pharmacodynamic (PD) effects of Posiphen in subjects with early Alzheimer’s Disease” (Alzheimer's Research & Therapy, 2024).

Tests used:
Format in all cases: in vivo, human
Aβ38 [1] = assay: SILK analysis of CSF Aβ38 (fractional synthesis rate); conditions: after 21 days
Experimental: (§1) For biochemical analysis to derive data for SILK, ^13C6-leucine was analyzed in plasma and CSF by mass spectrometry, and Aβ peptides in CSF were analyzed by immunoprecipitation-mass spectrometry (IP-MS) as previously described, by C2N Diagnostics (St Louis, MO). CSF levels of sAPPα, sAPPβ, Aβ38, 40 and 42 were analyzed by the ADCS Biomarker Core using Mesoscale Discovery (MSD) electrochemiluminescent assays (Mesoscale Discovery, Rockville, MD). Levels of Posiphen and its N1 and N8 metabolites in plasma and CSF were measured by Charles River Laboratories (Montreal, CA) by high-performance liquid chromatographic mass spectrometry, with use of deuterated Posiphen (procured by Charles River Laboratories) as an internal standard.
For SILK, the fraction of labeled Aβ for Aβ38, 40, and 42 during 36 h after administration of study drug for each subject was calculated, as described. The FSR measures were calculated by fitting a line to the upslope of the CSF Aβ labeling data. It was assumed that the upslope occurred between hours 6–16 h after the start of confinement. […] The percentage of newly synthesized and degraded Aβ was estimated over 36 h by multiplying the […] concentration of Aβ measured at the start of confinement (i.e. at catheter placement; time = 0) by the percentage of Aβ that contains ^13C6-leucine at each time point. […]

Aβ38 [2] = assay: CSF Aβ38 level, screening to day 21 (MSD immunoassay); conditions: ANOVA with age and sex as covariates; p = 0.47
Experimental: as §1
Changes in CSF biomarkers from the screening to confinement (sample at time of placement of catheter) were compared in the treatment and placebo groups by ANOVA, with models that included age, sex and baseline MMSE, and further analysis stratified by treatment dose. A similar approach was taken to analyze changes in MMSE, ADAS-cog and NPI. Data were analyzed using R (version 4.2.2).

[3] = Safety and tolerability (adverse events, vital signs, EKG, laboratory tests)
Experimental: Safety measures included adverse events, vital signs, EKG and laboratory tests. The Mini-Mental State Examination (MMSE), Alzheimer’s Disease Assessment Scale-cognitive (ADAS-cog12) and Neuropsychiatric Inventory (NPI) were used as cognitive and behavioral outcomes,.
(§2) A prespecified Statistical Analysis Plan (SAP) was prepared and finalized before the database lock occurred. For safety and tolerability, frequencies of adverse events, serious adverse events and laboratory abnormalities between the participants across the three groups are compared, using Pearson’s χ [2] or ANOVA, as appropriate. Plasma concentration-time data are analyzed by non-compartmental methods using WinNonlin version 6.2.1 or greater. Calculations are based on the actual sampling times recorded during the study. For PK analysis, only the subjects receiving Posiphen are included.

[4] = Plasma pharmacokinetics of Posiphen and its N1 and N8 metabolites (LC-MS, non-compartmental); conditions: for Tmax: median (min-max); for AUC(0-t) / Cmax: 60 mg; for AUC(0-t): read-out: AUC0 − 24; for Cmax: read-out: Cmax; for mean levels averaged over 24 h of CSF sampling: after 21–23 days, early AD
Description: (§3) For the confinement visit, subjects arrived in the early morning after an overnight fast. Physical and neurological examination, vital signs, and assessment of compliance were completed and blood was drawn for safety laboratory tests. An intravenous line and a second line for repeated blood draw were placed. To sample CSF, the intrathecal space was accessed using a Perifix 18G Touhy Epidural Needle (90 mm), and a Polyamide Epidural Catheter (20G Closed Tip) was inserted and fixed in place by an Anesthesiologist. Participants received the last day’s dosing of study drug or placebo. Initial blood and CSF samples were drawn, intravenous infusion of ^13C6-leucine was started and continued for 9 h, during which time subjects received a low leucine diet. Blood and CSF were sampled every 2 h for 36 h. After 36 h, intravenous lines and the CSF catheter were removed, vital signs were measured, physical exam performed, and blood and CSF were sent for routine laboratory studies. […] If postural headache was present, a blood patch was performed. Once stable, participants underwent a brief exam and vital sign check and were discharged. They received a phone call 24 h after discharge to check on their wellbeing.
as §1, §2
(§4) Noncompartmental pharmacokinetic parameters were estimated using Phoenix WinNonlin v8.3 (Certara, Princeton, NJ). Levels and parameters (Cmax, AUC) of posiphen, n-1 and n-8 metabolites were highly correlated in plasma and CSF. For the BID and TID doses the expected post dose plasma peaks appeared attenuated.

[5] = CSF pharmacokinetics of Posiphen and its N1 and N8 metabolites (lumbar catheter sampling, LC-MS); conditions: for mean levels averaged over 24 h of CSF sampling: after 21–23 days, early AD; for Tmax: median (min-max); for AUC(0-t) / Cmax: 60 mg; for AUC(0-t): read-out: AUC0 − 24; for Cmax: read-out: Cmax
Description: as §3, §1, §2, §4

[6] = human, plasma, oral, plasma, 60 mg BID (n = 5), geometric mean (% geometric CV)
[7] = human, plasma, oral, plasma, 60 mg TID (n = 1)
[8] = human, plasma, oral, plasma, 60 mg daily (n = 4), geometric mean (% geometric CV)
[9] = plasma, 60 mg daily (n = 4), geometric mean (% geometric CV)
[10] = human, oral, 60 mg BID (n = 5), geometric mean (% geometric CV)
[11] = human, oral, 60 mg daily (n = 4; N1: only one participant measurable), geometric mean (% geometric CV)

## CN1CC[C@]2(C)c3cc(OC(=O)Nc4ccccc4)ccc3N(C)[C@H]12 [Posiphen]
Aβ38 [1]
  effect on FSR estimates for Aβ38 vs. placebo: no significant effect
Aβ38 [2]
  CSF Aβ38, Treatment difference (Posiphen – placebo): -0.202 (0.27) p = 0.47 pg/mL
[3]; Posiphen vs placebo groups
  ECG parameters: no significant changes or differences
  laboratory safety parameters: no clinically significant changes
[3]; early AD, 60 mg once, twice or three times per day for 21–23 days, 11 received Posiphen, 7 placebo
  safety and tolerability: safe and was generally well tolerated
[3]; early AD, 21–23 days
  adverse events (AEs), frequency vs placebo: did not differ in frequency between the groups
  vital signs: no significant changes
[4]; 60 mg once, twice, three times daily
  plasma exposure with more frequent dosing: did not increase proportionally
[4]; human, oral, plasma, 60 mg daily (n = 4), geometric mean (% geometric CV)
  half-life: 3.55 h
[4]; human, oral, plasma, 60 mg daily (n = 4), read-out: Tmax
  Tmax: 2 h
[4]; [6]
  AUC(0-t): 196 ng·h/mL
  Cmax: 30.4 ng/mL
[4]; [7]
  AUC(0-t): 288 ng·h/mL
  Cmax: 51.8 ng/mL
[4]; [8]
  AUC(0-t): 212 ng·h/mL
  Cmax: 52.7 ng/mL
[4]; plasma, 60 mg BID (n = 5)
  mean levels averaged over 24 h of CSF sampling: 9.51 ± 5.77 ng/mL
  Tmax: 2 (2–12) hr
[4]; plasma, 60 mg TID (n = 1)
  mean levels averaged over 24 h of CSF sampling: 12.01 ng/mL
[4]; [9]
  Cl/F: 274.04 (17.50) L/hr
  V/F: 1403.1 (59.23) L
[4]; plasma, 60 mg once daily (n = 5)
  mean levels averaged over 24 h of CSF sampling: 7.16 ± 4.25 ng/mL
[5]; 60 mg (n = 5)
  mean levels averaged over 24 h of CSF sampling: 0.46 ± 0.30 ng/mL
[5]; 60 mg BID (n = 5)
  mean levels averaged over 24 h of CSF sampling: 0.73 ± 0.53 ng/mL
  Tmax: 2 (2–20) hr
[5]; 60 mg TID (n = 1)
  mean levels averaged over 24 h of CSF sampling: 0.71 ng/mL
[5]; human, oral, 60 mg daily (n = 4; N1: only one participant measurable), read-out: Tmax
  Tmax: 2 h
[5]; [10]
  AUC(0-t): 17.9 ng·h/mL
  Cmax: 2.21 ng/mL
[5]; human, oral, 60 mg TID (n = 1)
  AUC(0-t): 25 ng·h/mL
  Cmax: 2.44 ng/mL
[5]; [11]
  AUC(0-t): 12.3 ng·h/mL
  Cmax: 2.85 ng/mL
